# Experimental data taken from PubChem BioAssay (NCI).
#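 Each compound was tested at five concentrations against cells in 96-well plates for 48 hours. GI50: concentration for 50% inhibition of growth. TGI: concentration producing complete growth inhibition.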
# How the values were obtained:
# Assay in all cases: NCI anticancer screen, dose series, 48 h
# T-47D breast = system: T-47D breast
# A549 NSCLC = system: A549 NSCLC
# KM12 colon = system: KM12 colon
# OVCAR-5 ovarian = system: OVCAR-5 ovarian
# NCI-H226 lung = system: NCI-H226 lung
# SK-MEL-28 melanoma = system: SK-MEL-28 melanoma
# CCRF-CEM leukemia = system: CCRF-CEM leukemia
# BT-549 breast = system: BT-549 breast
# HCT-15 colon = system: HCT-15 colon
# RPMI-8226 leukemia = system: RPMI-8226 leukemia
# MDA-MB-435 = system: MDA-MB-435
# U251 CNS = system: U251 CNS
# ACHN renal = system: ACHN renal
# HOP-62 NSCLC = system: HOP-62 NSCLC
# SR leukemia = system: SR leukemia
# SNB-19 CNS = system: SNB-19 CNS
# HS 578T breast = system: HS 578T breast
# HCT-116 colon = system: HCT-116 colon
# SN12C renal = system: SN12C renal
# HCC-2998 colon = system: HCC-2998 colon
# SF-268 CNS = system: SF-268 CNS
# NCI-H23 lung = system: NCI-H23 lung
# MOLT-4 leukemia = system: MOLT-4 leukemia
# MDA-N = system: MDA-N
# UACC-62 melanoma = system: UACC-62 melanoma
# M14 melanoma = system: M14 melanoma
# SK-OV-3 ovarian = system: SK-OV-3 ovarian
# SNB-75 CNS = system: SNB-75 CNS
# CAKI-1 renal = system: CAKI-1 renal
# HOP-92 NSCLC = system: HOP-92 NSCLC
# PC-3 prostate = system: PC-3 prostate
# HL-60(TB) leukemia = system: HL-60(TB) leukemia
# SW-620 colon = system: SW-620 colon
# IGROV1 ovarian = system: IGROV1 ovarian
# OVCAR-3 ovarian = system: OVCAR-3 ovarian
# COLO 205 colon = system: COLO 205 colon
# MDA-MB-231 breast = system: MDA-MB-231 breast
# DU-145 prostate = system: DU-145 prostate
# LOX IMVI melanoma = system: LOX IMVI melanoma
# K-562 leukemia = system: K-562 leukemia
# OVCAR-8 ovarian = system: OVCAR-8 ovarian
# NCI/ADR-RES ovarian = system: NCI/ADR-RES ovarian
# EKVX NSCLC = system: EKVX NSCLC
# SK-MEL-2 melanoma = system: SK-MEL-2 melanoma
# RXF 393 renal = system: RXF 393 renal
# A498 renal = system: A498 renal
# UACC-257 melanoma = system: UACC-257 melanoma
# UO-31 renal = system: UO-31 renal
# TK-10 renal = system: TK-10 renal
# NCI-H522 lung = system: NCI-H522 lung
# SF-539 CNS = system: SF-539 CNS
# OVCAR-4 ovarian = system: OVCAR-4 ovarian
# 786-0 renal = system: 786-0 renal
# MALME-3M melanoma = system: MALME-3M melanoma
# SF-295 CNS = system: SF-295 CNS
# SK-MEL-5 melanoma = system: SK-MEL-5 melanoma
# HT29 colon = system: HT29 colon
# NCI-H460 lung = system: NCI-H460 lung
# MCF7 breast = system: MCF7 breast
smiles,measurement,setting,value
CCCC(=O)NC(Nc1ccc(S(=O)(=O)Nc2ccc(OC)nn2)cc1)(C(F)(F)F)C(F)(F)F,TGI,T-47D breast,> 100000 nM
same,TGI,A549 NSCLC,> 100000 nM
same,TGI,KM12 colon,> 100000 nM
same,TGI,OVCAR-5 ovarian,> 100000 nM
same,TGI,NCI-H226 lung,> 100000 nM
same,TGI,SK-MEL-28 melanoma,> 100000 nM
same,TGI,CCRF-CEM leukemia,> 100000 nM
same,TGI,BT-549 breast,> 100000 nM
same,TGI,HCT-15 colon,> 100000 nM
same,TGI,RPMI-8226 leukemia,> 100000 nM
same,TGI,MDA-MB-435,> 100000 nM
same,TGI,U251 CNS,> 100000 nM
same,TGI,ACHN renal,> 100000 nM
same,TGI,HOP-62 NSCLC,> 100000 nM
same,TGI,SR leukemia,> 100000 nM
same,TGI,SNB-19 CNS,> 100000 nM
same,TGI,HS 578T breast,> 100000 nM
same,TGI,HCT-116 colon,> 100000 nM
same,TGI,SN12C renal,> 100000 nM
same,TGI,HCC-2998 colon,> 100000 nM
same,TGI,SF-268 CNS,> 100000 nM
same,TGI,NCI-H23 lung,> 100000 nM
same,TGI,MOLT-4 leukemia,> 100000 nM
same,TGI,MDA-N,> 100000 nM
same,TGI,UACC-62 melanoma,> 100000 nM
same,TGI,M14 melanoma,> 100000 nM
same,TGI,SK-OV-3 ovarian,> 100000 nM
same,TGI,SNB-75 CNS,> 100000 nM
same,TGI,CAKI-1 renal,> 100000 nM
same,TGI,HOP-92 NSCLC,> 100000 nM
same,TGI,PC-3 prostate,> 100000 nM
same,TGI,HL-60(TB) leukemia,> 100000 nM
same,TGI,SW-620 colon,> 100000 nM
same,TGI,IGROV1 ovarian,> 100000 nM
same,TGI,OVCAR-3 ovarian,> 100000 nM
same,TGI,COLO 205 colon,> 100000 nM
same,TGI,MDA-MB-231 breast,> 100000 nM
same,TGI,DU-145 prostate,> 100000 nM
same,TGI,LOX IMVI melanoma,> 100000 nM
same,TGI,K-562 leukemia,> 100000 nM
same,TGI,OVCAR-8 ovarian,> 100000 nM
same,TGI,NCI/ADR-RES ovarian,> 100000 nM
same,TGI,EKVX NSCLC,> 100000 nM
same,TGI,SK-MEL-2 melanoma,> 100000 nM
same,TGI,RXF 393 renal,> 100000 nM
same,TGI,A498 renal,> 100000 nM
same,TGI,UACC-257 melanoma,> 100000 nM
same,TGI,UO-31 renal,> 100000 nM
same,TGI,TK-10 renal,> 100000 nM
same,TGI,NCI-H522 lung,> 100000 nM
same,TGI,SF-539 CNS,> 100000 nM
same,TGI,OVCAR-4 ovarian,> 100000 nM
same,TGI,786-0 renal,> 100000 nM
same,TGI,MALME-3M melanoma,> 100000 nM
same,TGI,SF-295 CNS,> 100000 nM
same,TGI,SK-MEL-5 melanoma,> 100000 nM
same,TGI,HT29 colon,> 100000 nM
same,TGI,NCI-H460 lung,> 100000 nM
CCC[CH2][Pb]([Cl])([CH2]CCC)[CH2]CCC,GI50,T-47D breast,18.1 nM
same,TGI,T-47D breast,38.3 nM
same,GI50,A549 NSCLC,26.4 nM
same,TGI,A549 NSCLC,93.6 nM
same,GI50,KM12 colon,32.6 nM
same,TGI,KM12 colon,81 nM
same,GI50,OVCAR-5 ovarian,34 nM
same,TGI,OVCAR-5 ovarian,134 nM
same,GI50,SK-MEL-28 melanoma,27.6 nM
same,TGI,SK-MEL-28 melanoma,79.2 nM
same,GI50,CCRF-CEM leukemia,55.3 nM
same,TGI,CCRF-CEM leukemia,1150 nM
same,GI50,BT-549 breast,31 nM
same,TGI,BT-549 breast,137 nM
same,GI50,HCT-15 colon,19.5 nM
same,TGI,HCT-15 colon,48.7 nM
same,GI50,RPMI-8226 leukemia,15.7 nM
same,TGI,RPMI-8226 leukemia,53.1 nM
same,GI50,MDA-MB-435,17.8 nM
same,TGI,MDA-MB-435,36.6 nM
same,GI50,U251 CNS,16.1 nM
same,TGI,U251 CNS,30.4 nM
same,GI50,ACHN renal,22.1 nM
same,TGI,ACHN renal,55.8 nM
same,GI50,HOP-62 NSCLC,128 nM
same,TGI,HOP-62 NSCLC,258 nM
same,GI50,SR leukemia,67.1 nM
same,GI50,SNB-19 CNS,188 nM
same,TGI,SNB-19 CNS,330 nM
same,GI50,HS 578T breast,31.7 nM
same,TGI,HS 578T breast,91.3 nM
same,GI50,HCT-116 colon,17.6 nM
same,TGI,HCT-116 colon,34.5 nM
same,GI50,SN12C renal,15.2 nM
same,TGI,SN12C renal,29.4 nM
same,GI50,HCC-2998 colon,43.9 nM
same,TGI,HCC-2998 colon,136 nM
same,GI50,SF-268 CNS,19.2 nM
same,TGI,SF-268 CNS,67.7 nM
same,GI50,NCI-H23 lung,29.8 nM
same,TGI,NCI-H23 lung,116 nM
same,GI50,MOLT-4 leukemia,24.5 nM
same,TGI,MOLT-4 leukemia,731 nM
same,GI50,MDA-N,19.6 nM
same,TGI,MDA-N,46.1 nM
same,GI50,UACC-62 melanoma,45.9 nM
same,TGI,UACC-62 melanoma,112 nM
same,GI50,M14 melanoma,19.2 nM
same,TGI,M14 melanoma,41.7 nM
same,GI50,MCF7 breast,16.1 nM
same,TGI,MCF7 breast,36.1 nM
same,GI50,SK-OV-3 ovarian,120 nM
same,TGI,SK-OV-3 ovarian,257 nM
same,GI50,SNB-75 CNS,21.5 nM
same,TGI,SNB-75 CNS,114 nM
same,GI50,CAKI-1 renal,67.3 nM
same,TGI,CAKI-1 renal,199 nM
same,GI50,HOP-92 NSCLC,58 nM
same,TGI,HOP-92 NSCLC,196 nM
same,GI50,PC-3 prostate,35.5 nM
same,TGI,PC-3 prostate,119 nM
same,GI50,HL-60(TB) leukemia,23.2 nM
same,TGI,HL-60(TB) leukemia,44.4 nM
same,GI50,SW-620 colon,18.5 nM
same,TGI,SW-620 colon,34.5 nM
same,GI50,IGROV1 ovarian,60.3 nM
same,TGI,IGROV1 ovarian,179 nM
same,GI50,OVCAR-3 ovarian,20.4 nM
same,TGI,OVCAR-3 ovarian,49.9 nM
same,GI50,COLO 205 colon,19.4 nM
same,TGI,COLO 205 colon,35.8 nM
same,GI50,MDA-MB-231 breast,32.8 nM
same,TGI,MDA-MB-231 breast,122 nM
same,GI50,DU-145 prostate,97.8 nM
same,TGI,DU-145 prostate,220 nM
same,GI50,LOX IMVI melanoma,22.3 nM
same,TGI,LOX IMVI melanoma,45 nM
same,GI50,K-562 leukemia,27.7 nM
same,TGI,K-562 leukemia,931 nM
same,GI50,OVCAR-8 ovarian,20.6 nM
same,TGI,OVCAR-8 ovarian,46.4 nM
same,GI50,EKVX NSCLC,66 nM
same,TGI,EKVX NSCLC,218 nM
same,GI50,SK-MEL-2 melanoma,22.9 nM
same,TGI,SK-MEL-2 melanoma,72.4 nM
same,GI50,RXF 393 renal,23.1 nM
same,TGI,RXF 393 renal,63.5 nM
same,GI50,A498 renal,48.3 nM
same,TGI,A498 renal,148 nM
same,GI50,UACC-257 melanoma,58.9 nM
same,TGI,UACC-257 melanoma,157 nM
same,GI50,UO-31 renal,31 nM
same,TGI,UO-31 renal,80.9 nM
same,GI50,TK-10 renal,31.7 nM
same,TGI,TK-10 renal,91.3 nM
same,GI50,NCI-H522 lung,32.1 nM
same,TGI,NCI-H522 lung,104 nM
same,GI50,SF-539 CNS,33.8 nM
same,TGI,SF-539 CNS,89.2 nM
same,GI50,OVCAR-4 ovarian,47.2 nM
same,TGI,OVCAR-4 ovarian,184 nM
same,GI50,786-0 renal,17.7 nM
same,TGI,786-0 renal,37 nM
same,GI50,MALME-3M melanoma,4.28 nM
same,TGI,MALME-3M melanoma,26.1 nM
same,GI50,SF-295 CNS,130 nM
same,TGI,SF-295 CNS,260 nM
same,GI50,SK-MEL-5 melanoma,53.4 nM
same,TGI,SK-MEL-5 melanoma,128 nM
same,GI50,HT29 colon,25.2 nM
same,TGI,HT29 colon,64.5 nM
same,GI50,NCI-H460 lung,17.7 nM
same,TGI,NCI-H460 lung,41.7 nM
